Experimental data as given in PubChem BioAssay (NCI).
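1) Cells in 96-well plates. 2) Compound, 48 h, 5 concentrations. 3) Linear interpolation between surrounding doses. 4) Unreached endpoint = highest concentration. Abbreviation: GI50, concentration required for 50% inhibition of growth. The concentration for full growth arrest is given as TGI.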

Legend:
Assay in all cases: inhibition of tumour cell growth, NCI panel, 48 h
[1] = test system: MOLT-4 leukemia
[2] = test system: RPMI-8226 leukemia
[3] = test system: SF-268 CNS
[4] = test system: COLO 205 colon
[5] = test system: ACHN renal
[6] = test system: T-47D breast
[7] = test system: UACC-257 melanoma
[8] = test system: SK-MEL-28 melanoma
[9] = test system: SW-620 colon
[10] = test system: HL-60(TB) leukemia
[11] = test system: DU-145 prostate
[12] = test system: TK-10 renal
[13] = test system: NCI-H23 lung
[14] = test system: UO-31 renal
[15] = test system: EKVX NSCLC
[16] = test system: MCF7 breast
[17] = test system: CCRF-CEM leukemia
[18] = test system: SK-MEL-5 melanoma
[19] = test system: MDA-MB-435
[20] = test system: RXF 393 renal
[21] = test system: HT29 colon
[22] = test system: SNB-19 CNS
[23] = test system: LOX IMVI melanoma
[24] = test system: CAKI-1 renal
[25] = test system: HS 578T breast
[26] = test system: HOP-92 NSCLC
[27] = test system: A549 NSCLC
[28] = test system: IGROV1 ovarian
[29] = test system: NCI-H522 lung
[30] = test system: U251 CNS
[31] = test system: 786-0 renal
[32] = test system: A498 renal
[33] = test system: OVCAR-3 ovarian
[34] = test system: SR leukemia
[35] = test system: SF-539 CNS
[36] = test system: PC-3 prostate
[37] = test system: HCT-116 colon
[38] = test system: MALME-3M melanoma
[39] = test system: OVCAR-5 ovarian
[40] = test system: OVCAR-4 ovarian
[41] = test system: SK-MEL-2 melanoma
[42] = test system: NCI-H226 lung
[43] = test system: M14 melanoma
[44] = test system: NCI-H460 lung
[45] = test system: KM12 colon
[46] = test system: OVCAR-8 ovarian
[47] = test system: K-562 leukemia
[48] = test system: SF-295 CNS
[49] = test system: HCT-15 colon
[50] = test system: SNB-75 CNS
[51] = test system: SN12C renal
[52] = test system: MDA-MB-231 breast
[53] = test system: UACC-62 melanoma
[54] = test system: NCI/ADR-RES ovarian
[55] = test system: BT-549 breast
[56] = test system: SK-OV-3 ovarian
[57] = test system: HOP-62 NSCLC

Compound `O=[N+]([O-])c1cc([N+](=O)[O-])c(NN=C(c2ccc(O)cc2)c2ccc(O)cc2)cc1Cl` has a GI50 [1] of 832 nM, a TGI [1] of 3110 nM and a GI50 [2] of 1980 nM. The TGI [2] was 4070 nM, the GI50 [3] was 1700 nM and the TGI [3] was 3290 nM. It also gave a GI50 [4] of 2400 nM, a TGI [4] of 5310 nM and a GI50 [5] of 1880 nM. It also gave a TGI [5] of 3450 nM, a GI50 [6] of 572 nM and a TGI [6] of 2120 nM. For the same compound, the GI50 [7] was 2170 nM, the TGI [7] was 3890 nM and the GI50 [8] was 685 nM. It also gave a TGI [8] of 1730 nM, a GI50 [9] of 348 nM and a TGI [9] of 1220 nM. It also gave a GI50 [10] of 684 nM, a TGI [10] of 2420 nM and a GI50 [11] of 1140 nM. The TGI [11] was 2640 nM, the GI50 [12] was 2260 nM and the TGI [12] was 4660 nM. For the same compound, the GI50 [13] was 1980 nM, the TGI [13] was 4450 nM and the GI50 [14] was 1760 nM. The TGI [14] was 3390 nM, the GI50 [15] was 2330 nM and the TGI [15] was 5100 nM. It also gave a GI50 [16] of 1370 nM, a TGI [16] of 3300 nM and a GI50 [17] of 716 nM. It also gave a TGI [17] of 2290 nM, a GI50 [18] of 1470 nM and a TGI [18] of 2910 nM. It also gave a GI50 [19] of 1820 nM, a TGI [19] of 3600 nM and a TGI [20] of 350 nM. The GI50 [21] was 1540 nM, the TGI [21] was 4070 nM and the GI50 [22] was 366 nM. For the same compound, the TGI [22] was 2300 nM, the GI50 [23] was 409 nM and the TGI [23] was 1600 nM. For the same compound, the GI50 [24] was 1700 nM, the TGI [24] was 3340 nM and the GI50 [25] was 742 nM. The TGI [25] was 2040 nM, the GI50 [26] was 463 nM and the TGI [26] was 2480 nM. It also gave a GI50 [27] of 2840 nM, a TGI [27] of 6590 nM and a GI50 [28] of 449 nM. For the same compound, the TGI [28] was 1570 nM, the GI50 [29] was 2000 nM and the TGI [29] was 4220 nM. For the same compound, the GI50 [30] was 1870 nM, the TGI [30] was 3550 nM and the GI50 [31] was 2150 nM. It also gave a TGI [31] of 4260 nM, a GI50 [32] of 2020 nM and a TGI [32] of 3640 nM. For the same compound, the GI50 [33] was 912 nM, the TGI [33] was 2240 nM and the GI50 [34] was 1680 nM. It also gave a GI50 [35] of 1750 nM, a TGI [35] of 3130 nM and a GI50 [36] of 813 nM. It also gave a TGI [36] of 2330 nM, a GI50 [37] of 1230 nM and a TGI [37] of 3110 nM. The GI50 [38] was 1970 nM, the TGI [38] was 3980 nM and the GI50 [39] was 2200 nM. It also gave a TGI [39] of 4150 nM, a GI50 [40] of 1400 nM and a TGI [40] of 2950 nM. It also gave a GI50 [41] of 3060 nM, a TGI [41] of 10600 nM and a GI50 [42] of 2010 nM. It also gave a TGI [42] of 3840 nM, a GI50 [43] of 1830 nM and a TGI [43] of 3940 nM. For the same compound, the GI50 [44] was 1920 nM, the TGI [44] was 4000 nM and the GI50 [45] was 1830 nM. It also gave a TGI [45] of 3730 nM, a GI50 [46] of 1790 nM and a TGI [46] of 4600 nM. The GI50 [47] was 4890 nM, the TGI [47] was over 100000 nM and the GI50 [48] was 1840 nM. For the same compound, the TGI [48] was 3650 nM, the GI50 [49] was 407 nM and the TGI [49] was 1520 nM. It also gave a GI50 [50] of 1440 nM, a TGI [50] of 3080 nM and a GI50 [51] of 1780 nM. The TGI [51] was 3360 nM, the GI50 [52] was 1740 nM and the TGI [52] was 3290 nM. The GI50 [53] was 1760 nM, the TGI [53] was 3280 nM and the GI50 [54] was 1890 nM. It also gave a TGI [54] of 3890 nM, a GI50 [55] of 2080 nM and a TGI [55] of 4460 nM. For the same compound, the GI50 [56] was 2040 nM, the TGI [56] was 4150 nM and the GI50 [57] was 2440 nM. For the same compound, the TGI [57] was 4990 nM.
